≈ marks a conversion by molar mass, not a printed value. Like-named read-outs stand apart in the source and are kept apart here.
Tests used:
[1] = test system: carbapenemase-producing Enterobacteriaceae (CPE); experiment: MIC in human urine and CAMHB at pH 5.0 to 8.0 (Example 13, Tables 29, 30); details: Klebsiella pneumoniae
Serratia marcescens = experiment: MIC, broth microdilution, standard strains and Japanese clinical isolates (Example 5, Table 4); assay type: cell-based
[2] = test system: carbapenemase-producing Enterobacteriaceae (CPE); experiment: MIC with human plasma or human serum albumin added (Example 12, Table 28); assay type: cell-based
A. baumannii [3] = experiment: MIC, broth microdilution, 6 strains (Example 6, Table 7); assay type: cell-based; details: Acinetobacter baumannii, Carbapenem-resistant, read-out: MIC
Klebsiella aerogenes = experiment: MIC, broth microdilution, standard strains and Japanese clinical isolates (Example 5, Table 4); assay type: cell-based; details: carbapenemase genes -
[4] = cited from earlier work
P. aeruginosa = experiment: MIC, Gram-negative bacteria clinically isolated in the United States (Example 8, Table 16); assay type: cell-based; details: Pseudomonas aeruginosa; P. aeruginosa (80 strains) isolated in the United States; Compound A µg/mL in parentheses
A. baumannii [5] = experiment: as above; assay type: cell-based; details: Acinetobacter baumannii; A. baumannii (80 strains) isolated in the United States; Compound A µg/mL in parentheses

C[C@@H](O)[C@H]1C(=O)N2C(C(=O)O)=C(S[C@@H]3CN[C@H](C(=O)N(C)C)C3)[C@H](C)[C@H]12 [MEPM, meropenem]
MIC ([1]; ATCCBAA2524, pH 6, read-out: MICs of MEPM, K. pneumoniae ATCC BAA-2524 (OXA-48), CAMHB pH6.0): 0.25 µg/mL (≈ 0.652 µM) | MIC ([1]; ATCCBAA2524, pH 6, read-out: MICs of MEPM, K. pneumoniae ATCC BAA-2524 (OXA-48), Human urine pH6.0): 0.25 µg/mL (≈ 0.652 µM) | MIC ([1]; ATCCBAA2524, pH 7, read-out: MICs of MEPM, K. pneumoniae ATCC BAA-2524 (OXA-48), Human urine pH7.0): 0.25 µg/mL (≈ 0.652 µM) | MIC ([1]; ATCCBAA2524, pH 7.2, read-out: MICs of MEPM, K. pneumoniae ATCC BAA-2524 (OXA-48), Standard condition (CAMHB pH7.2)): 1 µg/mL (≈ 2.61 µM) | MIC ([1]; ATCCBAA2524, pH 8, read-out: MICs of MEPM, K. pneumoniae ATCC BAA-2524 (OXA-48), CAMHB pH8.0): 4 µg/mL (≈ 10.4 µM) | MIC ([1]; ATCCBAA2524, pH 8, read-out: MICs of MEPM, K. pneumoniae ATCC BAA-2524 (OXA-48), Human urine pH8.0): 1 µg/mL (≈ 2.61 µM) | MIC ([1]; NCTC13439, pH 5, read-out: MICs of MEPM, K. pneumoniae NCTC13439 (VIM-1), CAMHB pH5.0): 0.12 µg/mL (≈ 0.313 µM) | MIC ([1]; NCTC13439, pH 5, read-out: MICs of MEPM, K. pneumoniae NCTC13439 (VIM-1), Human urine pH5.0): 0.12 µg/mL (≈ 0.313 µM) | MIC ([1]; NCTC13439, pH 6, read-out: MICs of MEPM, K. pneumoniae NCTC13439 (VIM-1), CAMHB pH6.0): 1 µg/mL (≈ 2.61 µM) | MIC ([1]; NCTC13439, pH 6, read-out: MICs of MEPM, K. pneumoniae NCTC13439 (VIM-1), Human urine pH6.0): 0.06 µg/mL (≈ 0.156 µM) | MIC ([1]; NCTC13439, pH 7, read-out: MICs of MEPM, K. pneumoniae NCTC13439 (VIM-1), Human urine pH7.0): 2 µg/mL (≈ 5.22 µM) | MIC ([1]; NCTC13439, pH 7.2, read-out: MICs of MEPM, K. pneumoniae NCTC13439 (VIM-1), Standard condition (CAMHB pH7.2)): 4 µg/mL (≈ 10.4 µM) | MIC ([1]; NCTC13439, pH 8, read-out: MICs of MEPM, K. pneumoniae NCTC13439 (VIM-1), CAMHB pH8.0): 4 µg/mL (≈ 10.4 µM) | MIC ([1]; NCTC13439, pH 8, read-out: MICs of MEPM, K. pneumoniae NCTC13439 (VIM-1), Human urine pH8.0): 1 µg/mL (≈ 2.61 µM) | MIC (Serratia marcescens; KUB3169 Serratia marcescens Clinical isolate, carbapenemase genes Unidentified, read-out: MIC): 2 µg/mL (≈ 5.22 µM) | MIC (Serratia marcescens; KUB3170 Serratia marcescens Clinical isolate, carbapenemase genes Unidentified): 2 µg/mL (≈ 5.22 µM) | MIC (Serratia marcescens; KUB3171 Serratia marcescens Clinical isolate, carbapenemase genes -): 2 µg/mL (≈ 5.22 µM) | MIC ([2]; Escherichia coli, ATCC25922, read-out: MICs of MEPM, E. coli ATCC 25922 (quality control strain), Albumin 0% (standard condition)): 0.015 µg/mL (≈ 0.0391 µM) | MIC ([2]; Escherichia coli, ATCC25922, read-out: MICs of MEPM, E. coli ATCC 25922 (quality control strain), Albumin 4%): 0.03 µg/mL (≈ 0.0782 µM) | MIC ([2]; Escherichia coli, ATCC25922, read-out: MICs of MEPM, E. coli ATCC 25922 (quality control strain), Plasma 20%): 0.03 µg/mL (≈ 0.0782 µM) | MIC ([2]; Escherichia coli, ATCC25922, read-out: MICs of MEPM, E. coli ATCC 25922 (quality control strain), Plasma 50%): 0.03 µg/mL (≈ 0.0782 µM) | MIC ([2]; Escherichia coli, ATCCBAA2340, read-out: MICs of MEPM, E. coli ATCC BAA-2340 (KPC-3), Albumin 0% (standard condition)): 4 µg/mL (≈ 10.4 µM) | MIC ([2]; Escherichia coli, ATCCBAA2340, read-out: MICs of MEPM, E. coli ATCC BAA-2340 (KPC-3), Albumin 4%): 4 µg/mL (≈ 10.4 µM) | MIC ([2]; Escherichia coli, ATCCBAA2340, read-out: MICs of MEPM, E. coli ATCC BAA-2340 (KPC-3), Plasma 20%): 4 µg/mL (≈ 10.4 µM) | MIC ([2]; Escherichia coli, ATCCBAA2340, read-out: MICs of MEPM, E. coli ATCC BAA-2340 (KPC-3), Plasma 50%): 0.5 µg/mL (≈ 1.3 µM) | MIC ([2]; Escherichia coli, ATCCBAA2469, read-out: MICs of MEPM, E. coli ATCC BAA-2469 (NDM-1), Albumin 0% (standard condition)): 32 µg/mL (≈ 83.4 µM) | MIC ([2]; Escherichia coli, ATCCBAA2469, read-out: MICs of MEPM, E. coli ATCC BAA-2469 (NDM-1), Albumin 4%): 16 µg/mL (≈ 41.7 µM) | MIC ([2]; Escherichia coli, ATCCBAA2469, read-out: MICs of MEPM, E. coli ATCC BAA-2469 (NDM-1), Plasma 20%): ≤ 0.12 µg/mL | MIC ([2]; Escherichia coli, ATCCBAA2469, read-out: MICs of MEPM, E. coli ATCC BAA-2469 (NDM-1), Plasma 50%): ≤ 0.12 µg/mL | MIC ([2]; Escherichia coli, NCTC13476, read-out: MICs of MEPM, E. coli NCTC 13476 (IMP-1), Albumin 0% (standard condition)): 4 µg/mL (≈ 10.4 µM) | MIC ([2]; Escherichia coli, NCTC13476, read-out: MICs of MEPM, E. coli NCTC 13476 (IMP-1), Albumin 4%): 4 µg/mL (≈ 10.4 µM) | MIC ([2]; Escherichia coli, NCTC13476, read-out: MICs of MEPM, E. coli NCTC 13476 (IMP-1), Plasma 20%): 1 µg/mL (≈ 2.61 µM) | MIC ([2]; Escherichia coli, NCTC13476, read-out: MICs of MEPM, E. coli NCTC 13476 (IMP-1), Plasma 50%): 0.5 µg/mL (≈ 1.3 µM) | MIC ([2]; Klebsiella pneumoniae, ATCCBAA2342, read-out: MICs of MEPM, K. pneumoniae ATCC BAA-2342 (KPC-3), Albumin 0% (standard condition)): 16 µg/mL (≈ 41.7 µM) | MIC ([2]; Klebsiella pneumoniae, ATCCBAA2342, read-out: MICs of MEPM, K. pneumoniae ATCC BAA-2342 (KPC-3), Albumin 4%): 32 µg/mL (≈ 83.4 µM) | MIC ([2]; Klebsiella pneumoniae, ATCCBAA2342, read-out: MICs of MEPM, K. pneumoniae ATCC BAA-2342 (KPC-3), Plasma 20%): 16 µg/mL (≈ 41.7 µM) | MIC ([2]; Klebsiella pneumoniae, ATCCBAA2342, read-out: MICs of MEPM, K. pneumoniae ATCC BAA-2342 (KPC-3), Plasma 50%): 16 µg/mL (≈ 41.7 µM) | MIC ([2]; Klebsiella pneumoniae, ATCCBAA2344, read-out: MICs of MEPM, K. pneumoniae ATCC BAA-2344 (KPC-2), Albumin 0% (standard condition)): 16 µg/mL (≈ 41.7 µM) | MIC ([2]; Klebsiella pneumoniae, ATCCBAA2344, read-out: MICs of MEPM, K. pneumoniae ATCC BAA-2344 (KPC-2), Albumin 4%): 32 µg/mL (≈ 83.4 µM) | MIC ([2]; Klebsiella pneumoniae, ATCCBAA2344, read-out: MICs of MEPM, K. pneumoniae ATCC BAA-2344 (KPC-2), Plasma 20%): 16 µg/mL (≈ 41.7 µM) | MIC ([2]; Klebsiella pneumoniae, ATCCBAA2344, read-out: MICs of MEPM, K. pneumoniae ATCC BAA-2344 (KPC-2), Plasma 50%): 16 µg/mL (≈ 41.7 µM) | MIC ([2]; Klebsiella pneumoniae, ATCCBAA2470, read-out: MICs of MEPM, K. pneumoniae ATCC BAA-2470 (NDM-1), Albumin 0% (standard condition)): 16 µg/mL (≈ 41.7 µM) | MIC ([2]; Klebsiella pneumoniae, ATCCBAA2470, read-out: MICs of MEPM, K. pneumoniae ATCC BAA-2470 (NDM-1), Albumin 4%): 8 µg/mL (≈ 20.9 µM) | MIC ([2]; Klebsiella pneumoniae, ATCCBAA2470, read-out: MICs of MEPM, K. pneumoniae ATCC BAA-2470 (NDM-1), Plasma 20%): 0.5 µg/mL (≈ 1.3 µM) | MIC ([2]; Klebsiella pneumoniae, ATCCBAA2470, read-out: MICs of MEPM, K. pneumoniae ATCC BAA-2470 (NDM-1), Plasma 50%): 0.5 µg/mL (≈ 1.3 µM) | MIC ([2]; Klebsiella pneumoniae, ATCCBAA2524, read-out: MICs of MEPM, K. pneumoniae ATCC BAA-2524 (OXA-48), Albumin 0% (standard condition)): 1 µg/mL (≈ 2.61 µM) | MIC ([2]; Klebsiella pneumoniae, ATCCBAA2524, read-out: MICs of MEPM, K. pneumoniae ATCC BAA-2524 (OXA-48), Albumin 4%): 0.5 µg/mL (≈ 1.3 µM) | MIC ([2]; Klebsiella pneumoniae, ATCCBAA2524, read-out: MICs of MEPM, K. pneumoniae ATCC BAA-2524 (OXA-48), Plasma 20%): 2 µg/mL (≈ 5.22 µM) | MIC ([2]; Klebsiella pneumoniae, ATCCBAA2524, read-out: MICs of MEPM, K. pneumoniae ATCC BAA-2524 (OXA-48), Plasma 50%): 4 µg/mL (≈ 10.4 µM) | MIC ([2]; read-out: MICs of MEPM, K pneumoniae NCTC13439 (VIM-1), Albumin 0% (standard condition)): 4 µg/mL (≈ 10.4 µM) | MIC ([2]; read-out: MICs of MEPM, K pneumoniae NCTC13439 (VIM-1), Albumin 4%): 2 µg/mL (≈ 5.22 µM) | MIC ([2]; read-out: MICs of MEPM, K pneumoniae NCTC13439 (VIM-1), Plasma 20%): ≤ 0.12 µg/mL | MIC ([2]; read-out: MICs of MEPM, K pneumoniae NCTC13439 (VIM-1), Plasma 50%): ≤ 0.12 µg/mL | MIC (A. baumannii [3]; A. baumannii strain with AMR gene ADC-25, OXA-23, OXA-66, TEM-ID): 64 µg/mL (≈ 167 µM) | MIC (A. baumannii [3]; A. baumannii strain with AMR gene ADC-25, XA-23, OXA-66, strA, strB, sul2, TEM-1D): 64 µg/mL (≈ 167 µM) | MIC (A. baumannii [3]; A. baumannii strain with AMR gene OXA-23, OXA-69, TEM-1D): 16 µg/mL (≈ 41.7 µM) | MIC (Klebsiella aerogenes; KUB3614 Klebsiella aerogenes Clinical isolate): 2 µg/mL (≈ 5.22 µM) | MIC (Klebsiella aerogenes; KUB3615 Klebsiella aerogenes Clinical isolate): 0.12 µg/mL (≈ 0.313 µM) | human protein binding rate ([4]; Reference 2): 2% | Cmax ([4]; human, 2 g intravenously for 3 hours every 8 hours, Reference 3): 46000 ng/mL | MIC50 (P. aeruginosa): 2 µg/mL (≈ 5.22 µM) | MIC90 (P. aeruginosa): 32 µg/mL (≈ 83.4 µM) | MIC50 (A. baumannii [5]): 2 µg/mL (≈ 5.22 µM) | MIC90 (A. baumannii [5]): 64 µg/mL (≈ 167 µM)
